PubChem BioAssay AID2060884 (Molecular Pharmacology Branch, DTP, NCI, 2025)

System: NCI-H929 complex spheroids, viability % test/control
Assay: Anticancer human tumor NCI-H929 cell line growth inhibition [RAS];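 also: compound exposure lasted seven days before viability was read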
Conditions: for IC50: curve of first compound; for viability, T/C: stronger effect = lower value
Text: RAS pathway inhibitors in Combinations in Complex Spheroids
A high-throughput screen of multi-cell type tumor spheroids was designed to identify active combinations of RAS pathway inhibitors and targeted small molecules. Complex spheroids include a stromal component modeled by human endothelial cells (HUVEC) and fibroblasts modeled by human mesenchymal stem cells (MSCs). The concentration ranges selected for each drug and investigational agent were based upon clinically achievable concentrations if the clinical Cmax of the agent was known.
Compounds. The drugs and investigational agents: abemaciclib (NSC768073), cobimetinib (NSC768068), divarasib (GDC6063, NSC841802), docetaxel (NSC628503), GDC-1971 (RLY-1971, NSC841576), gemcitabine (NSC613327), inavolisib (NSC800729), ipatasertib (NSC767898), KB-0742 (NSC834161), MRTX-1133 (NSC836407), osimertinib (NSC779217), RMC-4630 (NSC839698), RMC-6236 (NSC851965), RMC-6291 (NSC852671), Ro-3306 (NSC812927), sapanisertib (NSC764658), SN-38 (NSC673596), staurosporine (NSC755774), SY5609 (NSC837396), and tovorafenib (DAY101, NSC766906), were obtained from the National Cancer Institute (NCI) Developmental Therapeutics Program Chemical Repository. The FDA-approved anticancer drug set is available from the NCI Developmental Therapeutics Program. […] The stock solutions were prepared in dimethyl sulfoxide (DMSO, Sigma-Aldrich, St. Louis, MO, cat. D2650) at 800-fold the tested concentration and stored at -70 degrees C prior to their use. All drugs and investigational agents were tested over a range starting from a high concentration at or near the clinical Cmax and decreasing in half-log increments. If the clinical Cmax for an agent had not been determined, the highest concentration tested was 10 microM.
Cell Culture. All cells were maintained in an incubator at 37 degrees C and 5% CO2 with 95% humidity. The PDC lines were cultured according to standard operating procedures established by the NCI PDMR. All PDCs were thawed and cultured in Matrigel-coated flasks prepared with a working solution of 1X Ham's F-12 nutrient mix, without supplementation (Invitrogen, Waltham, MA, cat. 11765054), 100 U/mL penicillin-streptomycin (Invitrogen, cat. 15140122), and 2.5% Matrigel (Corning Inc., Corning, NY, cat. 354248) for the first three passages. The 362531-283-R-J2-PDC and 782815-120-R-J1-PDC lines were cultured in 6C/Colon 1B media, which includes advanced DMEM/F-12 (Thermo Fisher Scientific, cat. 12634028), 10 mM HEPES (Thermo Fisher Scientific, cat. 15630080), 1X GlutaMAX supplement (Thermo Fisher Scientific, cat. 35050061), 0.1 mg/mL primocin (InvivoGen, San Diego, CA, cat. ant-pm-2), 10% defined fetal bovine serum, heat inactivated (HyClone Laboratories Inc., Logan, UT, cat. SH30070.03HI), 50% L-WRN conditioned media (ATCC, cat. CRL-3276), 1.25 mM N-Acetyl-L-cysteine (Sigma-Aldrich, cat. A9165), 10 mM nicotinamide (Sigma-Aldrich, cat. N0636), 1X B-27 supplement (Thermo Fisher Scientific, cat. 17504044), 1X N-2 supplement (Thermo Fisher Scientific, cat. 17502048), 50 ng/mL human EGF (Thermo Fisher Scientific, cat. PHG0311), and 10 microM Y-27632 dihydrochloride (Tocris Bioscience, cat. 1254). The K12877-001-R-J1-PDC line was cultured in 6I media, which includes all 6C/Colon 1B media plus 10 ng/mL human FGF-10 (PeproTech, cat. 100-26), 1 ng/mL human FGF-2 (PeproTech, cat. 100-18B), 1 µM prostaglandin E2 (Tocris Bioscience, cat. 2296), […] hydrocortisone (Sigma-Aldrich, cat. H4001), and […] bovine insulin (Sigma-Aldrich, cat. I6634). The K86415-001-R-J1-PDC line was cultured in 6D media, which includes all 6C/Colon 1B media components minus the L-WRN conditioned media. The 485176-168-R4-J1-PDC was cultured in PANC media, which includes all 6C/Colon 1B media plus 100 ng/mL human FGF-10 (PeproTech, cat. 100-26), 500 nM SB-431542 (Selleckchem, cat. S1067), and 10 nM gastrin (Tocris Bioscience, cat. 3006). […]

[1] = second compound 0.000949 µM, first compound 0.0316 µM
[2] = second compound 0.000949 µM, first compound 0.1 µM
[3] = second compound 0.000949 µM, first compound 0.316 µM
[4] = second compound 0.000949 µM, first compound 1 µM
[5] = second compound 0.003 µM, first compound 0.0316 µM
[6] = second compound 0.003 µM, first compound 0.1 µM
[7] = second compound 0.003 µM, first compound 0.316 µM
[8] = second compound 0.003 µM, first compound 1 µM
[9] = second compound 0.00949 µM, first compound 0.0316 µM
[10] = second compound 0.00949 µM, first compound 0.1 µM
[11] = second compound 0.00949 µM, first compound 0.316 µM
[12] = second compound 0.00949 µM, first compound 1 µM
[13] = second compound 0.03 µM, first compound 0.0316 µM
[14] = second compound 0.03 µM, first compound 0.1 µM
[15] = second compound 0.03 µM, first compound 0.316 µM
[16] = second compound 0.03 µM, first compound 1 µM
[17] = second compound 0.0949 µM, first compound 0.0316 µM
[18] = second compound 0.0949 µM, first compound 0.1 µM
[19] = second compound 0.0949 µM, first compound 0.316 µM
[20] = second compound 0.0949 µM, first compound 1 µM
[21] = second compound 0.3 µM, first compound 0.0316 µM
[22] = second compound 0.3 µM, first compound 0.1 µM
[23] = second compound 0.3 µM, first compound 0.316 µM
[24] = second compound 0.3 µM, first compound 1 µM

O=C(c1ccc(F)c(F)c1Nc1ccc(I)cc1F)N1CC(O)([C@@H]2CCCCN2)C1 + CCn1c(-c2cccnc2C(C)OC)c2c3cc(ccc31)N1CCOC(CC(NC(=O)C(C(C)C)N(C)C(=O)C3(F)CCN(C(=O)C#CC(C)(C)N(C)C)CC3)C(=O)N3CCCC(N3)C(=O)OCC(C)(C)C2)C1
IC50 (second compound 0.000949 µM): 663 nM | IC50 (second compound 0.003 µM): 688 nM | IC50 (second compound 0.00949 µM): 686 nM | IC50 (second compound 0.03 µM): 661 nM | IC50 (second compound 0.0949 µM): 636 nM | IC50 (second compound 0.3 µM): 597 nM | viability, T/C (second compound 0.000949 µM, first compound 0.00316 µM): 109% | viability, T/C (second compound 0.000949 µM, first compound 0.01 µM): 97.9% | viability, T/C [1]: 103% | viability, T/C [2]: 92.5% | viability, T/C [3]: 98.3% | viability, T/C [4]: 23.2% | viability, T/C (second compound 0.003 µM, first compound 0.00316 µM): 99.2% | viability, T/C (second compound 0.003 µM, first compound 0.01 µM): 102% | viability, T/C [5]: 101% | viability, T/C [6]: 93.7% | viability, T/C [7]: 98.4% | viability, T/C [8]: 26.8% | viability, T/C (second compound 0.00949 µM, first compound 0.00316 µM): 97.2% | viability, T/C (second compound 0.00949 µM, first compound 0.01 µM): 102% | viability, T/C [9]: 104% | viability, T/C [10]: 95.1% | viability, T/C [11]: 101% | viability, T/C [12]: 25.5% | viability, T/C (second compound 0.03 µM, first compound 0.00316 µM): 98.6% | viability, T/C (second compound 0.03 µM, first compound 0.01 µM): 100% | viability, T/C [13]: 102% | viability, T/C [14]: 96.9% | viability, T/C [15]: 101% | viability, T/C [16]: 21.8% | viability, T/C (second compound 0.0949 µM, first compound 0.00316 µM): 96.6% | viability, T/C (second compound 0.0949 µM, first compound 0.01 µM): 99.7% | viability, T/C [17]: 101% | viability, T/C [18]: 98.4% | viability, T/C [19]: 103% | viability, T/C [20]: 17.7% | viability, T/C (second compound 0.3 µM, first compound 0.00316 µM): 100% | viability, T/C (second compound 0.3 µM, first compound 0.01 µM): 101% | viability, T/C [21]: 101% | viability, T/C [22]: 100% | viability, T/C [23]: 105% | viability, T/C [24]: 8.18%

CC(Nc1ccc2c(c1)OCCn1cc(N3C(=O)OCC3C(F)F)nc1-2)C(N)=O (centres undefined) + CCn1c(-c2cc(N3CCN(C)CC3)cnc2C(C)OC)c2c3cc(ccc31)-c1csc(n1)CC(NC(=O)C1CC1C)C(=O)N1CCCC(N1)C(=O)OCC(C)(C)C2
IC50 (second compound 0.000949 µM): 5990 nM | IC50 (second compound 0.003 µM): 5260 nM | IC50 (second compound 0.00949 µM): 1470 nM | IC50 (second compound 0.03 µM): < 31.6 nM | IC50 (second compound 0.0949 µM): < 31.6 nM | IC50 (second compound 0.3 µM): < 31.6 nM | viability, T/C [1]: 100% | viability, T/C [2]: 97.5% | viability, T/C [3]: 109% | viability, T/C [4]: 97.9% | viability, T/C (second compound 0.000949 µM, first compound 3.16 µM): 86.2% | viability, T/C (second compound 0.000949 µM, first compound 10 µM): 20.9% | viability, T/C [5]: 94.3% | viability, T/C [6]: 103% | viability, T/C [7]: 107% | viability, T/C [8]: 102% | viability, T/C (second compound 0.003 µM, first compound 3.16 µM): 78.5% | viability, T/C (second compound 0.003 µM, first compound 10 µM): 14.2% | viability, T/C [9]: 110% | viability, T/C [10]: 114% | viability, T/C [11]: 102% | viability, T/C [12]: 61.2% | viability, T/C (second compound 0.00949 µM, first compound 3.16 µM): 24.8% | viability, T/C (second compound 0.00949 µM, first compound 10 µM): 2.76% | viability, T/C [13]: 32.1% | viability, T/C [14]: 9.9% | viability, T/C [15]: 4.54% | viability, T/C [16]: 2.25% | viability, T/C (second compound 0.03 µM, first compound 3.16 µM): 0.96% | viability, T/C (second compound 0.03 µM, first compound 10 µM): 0.2% | viability, T/C [17]: 1.56% | viability, T/C [18]: 0.81% | viability, T/C [19]: 0.54% | viability, T/C [20]: 0.47% | viability, T/C (second compound 0.0949 µM, first compound 3.16 µM): 0.37% | viability, T/C (second compound 0.0949 µM, first compound 10 µM): 0.1% | viability, T/C [21]: 0.89% | viability, T/C [22]: 0.73% | viability, T/C [23]: 0.48% | viability, T/C [24]: 0.29% | viability, T/C (second compound 0.3 µM, first compound 3.16 µM): 0.33% | viability, T/C (second compound 0.3 µM, first compound 10 µM): 0.12%
